Here are results for 14 molecules from patent US10300067B2, “Tetrahydropyridopyrimidine compound or salt thereof” (TAIHO PHARMACEUTICAL CO., LTD., priority 2014, dated 2019).

The IC50 is the concentration needed to halve the response being measured. Read a low IC50 as greater potency.

Assay type in all cases: cell-based
The target in one experiment is human androgen receptor (Homo sapiens (Human), UniProt P10275). Description: Antagonist activity for AR (pMMTV-luc reporter transcription activity in transfected COS-7 cells, DHT 1 nmol/L). The note with it: for IC50: 50% transcription activity inhibition concentration, COS-7 cells with pMMTV-luc and pEX-hAR, DHT 1 nmol/L, 24 hours; for antagonist activity for AR (in words): COS-7 reporter assay. The protocol: Antagonist activity for AR was evaluated according to the following method. COS-7 cells (ATCC) were transfected with pMMTV-luc vector (reporter plasmid having, as an androgen response element, […] long terminal repeat) and pEX-hAR vector (human androgen receptor expression vector: which expresses human AR gene under control of CMV promoter) by using Nucleofector (registered trademark) Kit R (Lonza) as a transfection reagent and Amaxa (Lonza). The COS-7 cells obtained after transfection were seeded in a clear bottom 96 well microplate (BD) at 1.5×10^4/well with phenol red free RPMI1640 containing 10% charcoal-treated fetal bovine serum (hereinbelow, DCC-FBS) (hereinbelow, the medium is referred to as an evaluation medium), and then cultured overnight. […] Then, the transcription activity value was measured. The transcription activity was measured by using Bright-Glo™ Luciferase Assay System (Promega).
human androgen receptor, sequence (P10275 whole entry): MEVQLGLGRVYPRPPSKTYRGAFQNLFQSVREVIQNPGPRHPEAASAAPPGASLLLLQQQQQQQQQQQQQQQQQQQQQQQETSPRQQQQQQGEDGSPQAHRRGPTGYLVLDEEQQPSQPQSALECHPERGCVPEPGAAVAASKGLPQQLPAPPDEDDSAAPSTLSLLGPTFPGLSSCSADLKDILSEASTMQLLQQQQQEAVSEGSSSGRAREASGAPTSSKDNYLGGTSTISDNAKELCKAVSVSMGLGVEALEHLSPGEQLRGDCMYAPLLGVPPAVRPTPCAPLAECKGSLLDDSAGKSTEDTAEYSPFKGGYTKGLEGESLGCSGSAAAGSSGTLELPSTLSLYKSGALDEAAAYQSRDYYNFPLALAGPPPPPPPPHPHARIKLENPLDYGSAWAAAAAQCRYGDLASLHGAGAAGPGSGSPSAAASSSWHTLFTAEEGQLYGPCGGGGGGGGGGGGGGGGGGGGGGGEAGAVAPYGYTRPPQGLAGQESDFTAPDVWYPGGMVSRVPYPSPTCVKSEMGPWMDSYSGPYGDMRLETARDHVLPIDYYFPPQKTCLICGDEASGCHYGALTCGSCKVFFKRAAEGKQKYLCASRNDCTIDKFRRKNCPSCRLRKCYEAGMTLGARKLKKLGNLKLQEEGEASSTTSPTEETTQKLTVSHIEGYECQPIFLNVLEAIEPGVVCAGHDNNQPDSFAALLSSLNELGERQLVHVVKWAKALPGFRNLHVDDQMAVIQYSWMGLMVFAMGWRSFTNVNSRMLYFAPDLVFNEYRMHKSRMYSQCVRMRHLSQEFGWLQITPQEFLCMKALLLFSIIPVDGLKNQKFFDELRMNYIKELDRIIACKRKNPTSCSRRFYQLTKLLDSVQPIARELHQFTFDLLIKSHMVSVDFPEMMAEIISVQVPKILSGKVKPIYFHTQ
A general note: Reporter assays use an easily measured gene product as a stand-in for the process of interest.

In the next experiment the target is androgen receptor (Homo sapiens (Human), UniProt P10275, T878A). Briefly: Activity of reducing expression level of androgen receptor (Western blotting of LNCaP cell lysate). The note with it: 48 hours. The protocol: AR positive human prostate cancer cells LNCaP were seeded in a clear bottom 6 well microplate (BD) at 3.5×10^5/well with phenol red free RPMI1640 containing 5% FBS (hereinbelow, the medium is referred to as an evaluation medium), and then cultured overnight. The culture was added with the evaluation medium containing the compound of Examples or the compound of Comparative Examples such that the final concentration of the compound of Examples or the compound of Comparative Examples was 10000 nmol/L, followed by culture for 48 hours. After culture for 48 hours, the medium was removed and the cells were washed with PBS and added with 0.1 mL of Lysis buffer (M-PER added with Protease Inhibitor Cocktail), followed by keeping at 4° C. for 20 minutes. After cell lysis, the cell solution was centrifuged to recover the supernatant as cell lysate. […] The antibody-reacting band (anti AR receptor) was quantified by LAS-3000 (FUJIFILM) using Super Signal West Pico Substrate (Thermo Scientific) as a detection reagent.
androgen receptor, sequence (P10275 whole entry T878A): as the sequence (P10275 whole entry) above, with T878A counted along it
Background: A western blot detects proteins with antibodies after separation by electrophoresis.

The test system of experiment [1] is AR positive human prostate cancer cells VCaP. Description: Agonist activity for AR (cell proliferation rate of VCaP cells). The conditions noted are these: 72 hours, 2 to 10000 nmol/L, more than 10% at any concentration = agonist activity for AR. How it is done: AR positive human prostate cancer cells VCaP (In Vivo 15:163-168, 2001) were seeded in a clear bottom 96 well microplate (BD) at 1.5×10^4/well with phenol red free RPMI1640 containing 5% DCC-FBS (hereinbelow, the medium is referred to as an evaluation medium), and then cultured overnight. The culture was added with the evaluation medium containing the compound of Examples or the compound of Comparative Examples (final concentration of the compound of Examples or the compound of Comparative Examples: 2, 5, 14, 41, 123, 370, 1111, 3333, or 10000 nmol/L), followed by culture for 72 hours. Then, the number of viable cells was counted (test group). As a control, the cells were cultured after being added with the evaluation medium only, and the number of viable cells was counted (control group). The number of viable cells was measured by using CellTiter-Glo™ Luminescent Cell Viability Assay (Promega). From the measured number of viable cells, cell proliferation rate with respect to the compound of Examples or the compound of Comparative Examples was calculated based on the number of viable cells measured in the case of using the evaluation medium only. Cell proliferation rate (%) =(Number of viable cells in test group−Number of viable cells in control group)/(Number of viable cells in control group)×100
By considering an error in the number of viable cells measured in the case of using the evaluation medium only, when the cell proliferation rate was more than 10% at any concentration of the 9 concentrations which had been evaluated, it was determined to have an agonist activity for AR.

In turn, `CC(C)(COc1ncc(Nc2ncnc3c2CCN(c2ccc(C#N)c(C(F)(F)F)c2)C3)cc1Cl)n1cnnn1` [Example 52, 4-(4-((5-Chloro-6-(2-methyl-2-(1H-tetrazol-1-yl)propoxy)pyridin-3-yl)amino)-5,6-dihydropyrido[3,4-d]pyrimidin-7(8H)-yl)-2-(trifluoromethyl)benzonitrile] showed an IC50 against human androgen receptor of 0.15 µM. Besides, the “10 μM AR expression reducing activity” value at androgen receptor is “reduced (When the AR expression reducing activity is 50% or more, it is described as “reduced”)”. Besides, in experiment [1], the “Cell proliferation rate (%)” value is −3.4%.
As to `CC(C)(O)c1ccc(Nc2ncnc3c2CCN(c2ccc(C#N)c(Cl)c2)C3)nc1F` [Example 46, 2-Chloro-4-(4-((6-fluoro-5-(2-hydroxypropan-2-yl)pyridin-2-yl)amino)-5,6-dihydropyrido[3,4-d]pyrimidin-7 (8H)-yl)benzonitrile], the IC50 against human androgen receptor was 0.25 µM. Moreover, on androgen receptor, the “10 μM AR expression reducing activity” value is “reduced (When the AR expression reducing activity is 50% or more, it is described as “reduced”)”. In experiment [1], the “Cell proliferation rate (%)” value amounted to 1.0%.
Molecule `CC(C)(O)c1cnc(Nc2ncnc3c2CCN(c2ccc(C#N)c(C(F)(F)F)c2)C3)cc1F` [Example 47, 4-(4-((4-Fluoro-5-(2-hydroxypropan-2-yl)pyridin-2-yl)amino)-5,6-dihydropyrido[3,4-d]pyrimidin-7 (8H)-yl)-2-(trifluoromethyl)benzonitrile] came in with a half-maximal inhibitory concentration (IC50) at human androgen receptor of 0.07 µM. Also, the “10 μM AR expression reducing activity” value at androgen receptor was “reduced (When the AR expression reducing activity is 50% or more, it is described as “reduced”)”. Also, in experiment [1], the “Cell proliferation rate (%)” value is 1.9%.
Turning to `C[C@@H](NC(=O)c1nnc(Nc2ncnc3c2CCN(c2ccc(C#N)c(C(F)(F)F)c2)C3)s1)c1nnco1` [Example 39, (R)—N-(1-(1,3,4-Oxadiazol-2-yl)ethyl)-5-((7-(4-cyano-3-(trifluoromethyl)phenyl)-5,6,7,8-tetrahydropyrido[3,4-d]pyrimidin-4-yl)amino)-1,3,4-thiadiazol-2-carboxamide], half-maximal inhibition on human androgen receptor (IC50) was put at 2.05 µM. Further, the “10 μM AR expression reducing activity” value on androgen receptor is listed as “reduced (When the AR expression reducing activity is 50% or more, it is described as “reduced”)”. In addition, the “Cell proliferation rate (%)” value in experiment [1] stood at 5.5%.
As for `CC(C)Oc1ccc(Nc2ncnc3c2CN(c2ccc(C#N)c(C(F)(F)F)c2)CC3)cc1` [Comparative Example 2, 4-(4-((4-Isopropoxyphenyl)amino)-7,8-dihydropyrido[4,3-d]pyrimidin-6(5H)-yl)-2-(trifluoromethyl)benzonitrile, reference compound], on human androgen receptor, the IC50 was above 10 µM and the “antagonist activity for AR (in words)” value was “no antagonist activity for AR”. Moreover, at androgen receptor, the “10 μM AR expression reducing activity” value is on record as below 10%.
At human androgen receptor, `N#Cc1ccc(N2CCc3c(ncnc3Nc3ccc(C(=O)NCC(F)(F)F)nn3)C2)cc1Cl` [Example 49, 6-((7-(3-Chloro-4-cyanophenyl)-5,6,7,8-tetrahydropyrido[3,4-d]pyrimidin-4-yl)amino)-N-(2,2,2-trifluoroethyl)pyridazine-3-carboxamide] yielded an IC50 of 0.002 µM. Further, the “10 μM AR expression reducing activity” value at androgen receptor is “reduced (When the AR expression reducing activity is 50% or more, it is described as “reduced”)”.
In turn, `N#Cc1ccc(N2CCc3c(ncnc3Nc3ccc(C4(O)CC4)cn3)C2)cc1C(F)(F)F` [Example 12, 4-(4-((5-(1-Hydroxycyclopropyl)pyridin-2-yl)amino)-5,6-dihydropyrido[3,4-d]pyrimidin-7(8H)-yl)-2-(trifluoromethyl)benzonitrile] gave an IC50 against human androgen receptor of 0.17 µM. For the same molecule, the “10 μM AR expression reducing activity” value on androgen receptor is reported as “reduced (When the AR expression reducing activity is 50% or more, it is described as “reduced”)”.
On to `C[C@@H](NC(=O)c1sc(Nc2ncnc3c2CCN(c2ccc(C#N)c(C(F)(F)F)c2)C3)nc1C(F)(F)F)c1nnco1` [Example 37, (R)—N-(1-(1,3,4-Oxadiazol-2-yl)ethyl)-2-((7-(4-cyano-3-(trifluoromethyl)phenyl)-5,6,7,8-tetrahydropyrido[3,4-d]pyrimidin-4-yl)amino)-4-(trifluoromethyl) thiazol-5-carboxamide], for which, on human androgen receptor, the IC50 was 0.17 µM. The “10 μM AR expression reducing activity” value on androgen receptor is “reduced (When the AR expression reducing activity is 50% or more, it is described as “reduced”)”. In addition, in experiment [1], the “Cell proliferation rate (%)” value is recorded as 0.9%.
As for `CC(C)(COc1ncc(Nc2ncnc3c2CCN(c2ccc(C#N)c(C(F)(F)F)c2)C3)cc1F)n1cnnn1` [Example 50, 4-(4-((5-Fluoro-6-(2-methyl-2-(1H-tetrazol-1-yl)propoxy)pyridin-3-yl)amino)-5,6-dihydropyrido[3,4-d]pyrimidin-7(8H)-yl)-2-(trifluoromethyl)benzonitrile], at human androgen receptor, the half-maximal inhibitory concentration (IC50) came out at 0.32 µM. For the same molecule, the “10 μM AR expression reducing activity” value at androgen receptor was “reduced (When the AR expression reducing activity is 50% or more, it is described as “reduced”)”. Further, the “Cell proliferation rate (%)” value in experiment [1] was −3.7%.
In the case of `CC(C)Oc1ccc(Nc2nnc3n2CCN(c2ccc(C#N)c(C(F)(F)F)c2)C3)cc1` [Comparative Example 3, 4-(3-((4-Isopropoxyphenyl)amino)-5,6-dihydro[1,2,4]triazolo[4,3-a]pyrazin-7(8H)-yl)-2-(trifluoromethyl)benzonitrile, reference compound], on human androgen receptor, the concentration for half-maximal inhibition (IC50) is above 10 µM and the “antagonist activity for AR (in words)” value is recorded as “no antagonist activity for AR”. The “10 μM AR expression reducing activity” value at androgen receptor was below 10%.
The molecule `COc1ccc(Nc2ncnc3c2CCN(c2ccc(C#N)c(C(F)(F)F)c2)C3)cc1` [Example 3, 4-(4-((4-Methoxyphenyl)amino)-5,6-dihydropyrido[3,4-d]pyrimidin-7(8H)-yl)-2-(trifluoromethyl)benzonitrile] returned an IC50 against human androgen receptor of 0.53 µM. Also, on androgen receptor, the “10 μM AR expression reducing activity” value was “reduced (When the AR expression reducing activity is 50% or more, it is described as “reduced”)”. Also, the “Cell proliferation rate (%)” value in experiment [1] is 1.0%.
Consider `N#Cc1ccc(N2CCc3c(ncnc3Nc3cccc(-c4ccccc4)c3)C2)cc1C(F)(F)F` [Example 4, 4-(4-((1,1′-Biphenyl)-3-ylamino)-5,6-dihydropyrido[3,4-d]pyrimidin-7(8H)-yl)-2-(trifluoromethyl)benzonitrile], for which inhibition on human androgen receptor was half-maximal at 0.62 µM (IC50). The “10 μM AR expression reducing activity” value at androgen receptor is reported as “reduced (When the AR expression reducing activity is 50% or more, it is described as “reduced”)”.
Consider `FC(F)(F)c1ccc(Nc2ncnc3c2CCN(c2ncccc2Cl)C3)cc1` [Comparative Example 4, 7-(3-Chloropyridin-2-yl)-N-(4-(trifluoromethyl)phenyl)-5,6,7,8-tetrahydropyrido[3,4-d]pyrimidin-4-amine, reference compound], for which, at human androgen receptor, the IC50 was above 10 µM and the “antagonist activity for AR (in words)” value was “no antagonist activity for AR”. Besides, on androgen receptor, the “10 μM AR expression reducing activity” value was below 10%.
In the case of `CC(C)(O)c1ccc(Nc2ncnc3c2CCN(c2ccc(C#N)c(C(F)(F)F)c2)C3)cc1` [Example 57], on androgen receptor, the “10 μM AR expression reducing activity” value is “reduced (When the AR expression reducing activity is 50% or more, it is described as “reduced”)”. For the same molecule, the “Cell proliferation rate (%)” value in experiment [1] turned out to be 5.0%.
